SMILES strings stand for the structures. In brackets after ≈: the same amount, converted by molar mass.

From ChEMBL document CHEMBL4406816, “Role of sulphur-heterocycles in medicinal chemistry: An update” (Eur J Med Chem, 2019) come the findings set out here.

This test relates to Mycobacterium tuberculosis variant bovis. In words: Antitubercular activity against Mycobacterium bovis. In kind it is functional.

As for `Fc1ccc(-c2cn(Cc3csc(-c4ccccc4)n3)nn2)cc1`, the MIC (usually the lowest concentration found to suppress growth) was 1.69 µg/mL (≈ 5.02 µM).
